Measurements: the supplement of paper PMC10307832

How the values were obtained:
Experiment in all cases: relative viability (nuclei count vs DMSO), 5 days (fraction); higher = more cells survive
NCI-H1792 = test system: NCI-H1792
Method in brief: (§1)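 Dosing by pin tool came one day after lung cancer cell lines were seeded in 1536-well plates, using either one drug or a fixed anchor-drug dose plus five library-drug doses (not always all listed) in √10 steps. After 5 days, nuclei were counted on 4× images. Relative viability is treated-well nuclei count divided by vehicle-well nuclei count, and values are medians of duplicate plates.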

EKVX = test system: EKVX
Method in brief: as §1

EMC-BAC-2 = test system: EMC-BAC-2
Method in brief: as §1

ChaGo-K-1 = test system: ChaGo-K-1
Method in brief: as §1

SK-MES-1 = test system: SK-MES-1
Method in brief: as §1

NCI-H520 = test system: NCI-H520
Method in brief: as §1

NCI-H1975 = test system: NCI-H1975
Method in brief: as §1

PC-3 [JPC-3] = test system: PC-3 [JPC-3]
Method in brief: as §1

NCI-H1755 = test system: NCI-H1755
Method in brief: as §1

NCI-H1563 = test system: NCI-H1563
Method in brief: as §1

NCI-H596 = test system: NCI-H596
Method in brief: as §1

LK-2 = test system: LK-2
Method in brief: as §1

H3255 = test system: H3255
Method in brief: as §1

LOU-NH91 = test system: LOU-NH91
Method in brief: as §1

NCI-H1666 = test system: NCI-H1666
Method in brief: as §1

HCC-366 = test system: HCC-366
Method in brief: as §1

COR-L 105 = test system: COR-L 105
Method in brief: as §1

A-427 = test system: A-427
Method in brief: as §1

NCI-H441 = test system: NCI-H441
Method in brief: as §1

NCI-H1734 = test system: NCI-H1734
Method in brief: as §1

NCI-H2170 = test system: NCI-H2170
Method in brief: as §1

NCI-H23 = test system: NCI-H23
Method in brief: as §1

SMILES: NC(=O)Nc1cc(-c2cccc(F)c2)sc1C(=O)N[C@H]1CCCNC1 [AZD7762] + C[C@@H](Oc1cc(-c2cnn(C3CCNCC3)c2)cnc1N)c1c(Cl)ccc(F)c1Cl [Crizotinib] (partner 1 µM)
- relative viability (NCI-H1792; first compound 0.01 µM): 1.06
- relative viability (NCI-H1792; first compound 0.03162 µM): 1
- relative viability (NCI-H1792; first compound 0.1 µM): 0.975
- relative viability (NCI-H1792; first compound 0.3162 µM): 0.646
- relative viability (NCI-H1792; first compound 1 µM): 1.12
- relative viability (EKVX; first compound 0.01 µM): 0.875
- relative viability (EKVX; first compound 0.03162 µM): 1.03
- relative viability (EKVX; first compound 0.1 µM): 0.874
- relative viability (EKVX; first compound 0.3162 µM): 0.798
- relative viability (EKVX; first compound 1 µM): 0.412
- relative viability (EMC-BAC-2; first compound 0.01 µM): 0.852
- relative viability (EMC-BAC-2; first compound 0.03162 µM): 0.718
- relative viability (EMC-BAC-2; first compound 0.1 µM): 0.777
- relative viability (EMC-BAC-2; first compound 0.3162 µM): 0.797
- relative viability (EMC-BAC-2; first compound 1 µM): 0.706
- relative viability (ChaGo-K-1; first compound 0.01 µM): 1.21
- relative viability (ChaGo-K-1; first compound 0.03162 µM): 1.04
- relative viability (ChaGo-K-1; first compound 0.1 µM): 1.14
- relative viability (ChaGo-K-1; first compound 0.3162 µM): 1.07
- relative viability (ChaGo-K-1; first compound 1 µM): 0.64
- relative viability (SK-MES-1; first compound 0.01 µM): 1.05
- relative viability (SK-MES-1; first compound 0.03162 µM): 0.966
- relative viability (SK-MES-1; first compound 0.1 µM): 1.08
- relative viability (SK-MES-1; first compound 0.3162 µM): 0.999
- relative viability (SK-MES-1; first compound 1 µM): 0.614
- relative viability (NCI-H520; first compound 0.01 µM): 0.975
- relative viability (NCI-H520; first compound 0.03162 µM): 0.692
- relative viability (NCI-H520; first compound 0.1 µM): 0.477
- relative viability (NCI-H520; first compound 0.3162 µM): 0.504
- relative viability (NCI-H520; first compound 1 µM): 0.276
- relative viability (NCI-H1975; first compound 0.01 µM): 1.06
- relative viability (NCI-H1975; first compound 0.03162 µM): 0.937
- relative viability (NCI-H1975; first compound 0.1 µM): 0.837
- relative viability (NCI-H1975; first compound 0.3162 µM): 0.903
- relative viability (NCI-H1975; first compound 1 µM): 0.638
- relative viability (PC-3 [JPC-3]; first compound 0.01 µM): 0.999
- relative viability (PC-3 [JPC-3]; first compound 0.03162 µM): 0.962
- relative viability (PC-3 [JPC-3]; first compound 0.1 µM): 1.01
- relative viability (PC-3 [JPC-3]; first compound 0.3162 µM): 1.02
- relative viability (PC-3 [JPC-3]; first compound 1 µM): 0.903
- relative viability (NCI-H1755; first compound 0.01 µM): 0.901
- relative viability (NCI-H1755; first compound 0.03162 µM): 0.872
- relative viability (NCI-H1755; first compound 0.1 µM): 0.929
- relative viability (NCI-H1755; first compound 0.3162 µM): 0.853
- relative viability (NCI-H1755; first compound 1 µM): 0.508
- relative viability (NCI-H1563; first compound 0.01 µM): 0.957
- relative viability (NCI-H1563; first compound 0.03162 µM): 0.833
- relative viability (NCI-H1563; first compound 0.1 µM): 0.872
- relative viability (NCI-H1563; first compound 0.3162 µM): 0.889
- relative viability (NCI-H1563; first compound 1 µM): 0.741
- relative viability (NCI-H596; first compound 0.01 µM): 0.991
- relative viability (NCI-H596; first compound 0.03162 µM): 0.942
- relative viability (NCI-H596; first compound 0.1 µM): 1.02
- relative viability (NCI-H596; first compound 0.3162 µM): 1.11
- relative viability (NCI-H596; first compound 1 µM): 0.863
- relative viability (LK-2; first compound 0.01 µM): 0.203
- relative viability (LK-2; first compound 0.03162 µM): 0.221
- relative viability (LK-2; first compound 0.1 µM): 0.225
- relative viability (LK-2; first compound 0.3162 µM): 0.203
- relative viability (LK-2; first compound 1 µM): 0.228
- relative viability (H3255; first compound 0.01 µM): 0.997
- relative viability (H3255; first compound 0.03162 µM): 0.88
- relative viability (H3255; first compound 0.1 µM): 0.891
- relative viability (H3255; first compound 0.3162 µM): 0.867
- relative viability (H3255; first compound 1 µM): 0.42
- relative viability (LOU-NH91; first compound 0.01 µM): 0.764
- relative viability (LOU-NH91; first compound 0.03162 µM): 0.731
- relative viability (LOU-NH91; first compound 0.1 µM): 0.746
- relative viability (LOU-NH91; first compound 0.3162 µM): 0.76
- relative viability (LOU-NH91; first compound 1 µM): 0.546
- relative viability (NCI-H1666; first compound 0.01 µM): 1.58
- relative viability (NCI-H1666; first compound 0.03162 µM): 1.16
- relative viability (NCI-H1666; first compound 0.1 µM): 1.23
- relative viability (NCI-H1666; first compound 0.3162 µM): 0.993
- relative viability (NCI-H1666; first compound 1 µM): 0.695
- relative viability (HCC-366; first compound 0.01 µM): 0.678
- relative viability (HCC-366; first compound 0.03162 µM): 0.478
- relative viability (HCC-366; first compound 0.1 µM): 0.542
- relative viability (HCC-366; first compound 0.3162 µM): 0.323
- relative viability (HCC-366; first compound 1 µM): 0.0525
- relative viability (COR-L 105; first compound 0.01 µM): 0.877
- relative viability (COR-L 105; first compound 0.03162 µM): 0.772
- relative viability (COR-L 105; first compound 0.1 µM): 0.591
- relative viability (COR-L 105; first compound 0.3162 µM): 0.406
- relative viability (COR-L 105; first compound 1 µM): 0.271
- relative viability (A-427; first compound 0.01 µM): 1.01
- relative viability (A-427; first compound 0.03162 µM): 0.869
- relative viability (A-427; first compound 0.1 µM): 0.992
- relative viability (A-427; first compound 0.3162 µM): 0.815
- relative viability (A-427; first compound 1 µM): 0.386
- relative viability (NCI-H441; first compound 0.01 µM): 1.15
- relative viability (NCI-H441; first compound 0.03162 µM): 0.745
- relative viability (NCI-H441; first compound 0.1 µM): 1.15
- relative viability (NCI-H441; first compound 0.3162 µM): 0.995
- relative viability (NCI-H441; first compound 1 µM): 0.89
- relative viability (NCI-H1734; first compound 0.01 µM): 0.837
- relative viability (NCI-H1734; first compound 0.03162 µM): 0.676
- relative viability (NCI-H1734; first compound 0.1 µM): 0.869
- relative viability (NCI-H1734; first compound 0.3162 µM): 0.612
- relative viability (NCI-H1734; first compound 1 µM): 0.458
- relative viability (NCI-H2170; first compound 0.01 µM): 1.2
- relative viability (NCI-H2170; first compound 0.03162 µM): 1.26
- relative viability (NCI-H2170; first compound 0.1 µM): 1.24
- relative viability (NCI-H2170; first compound 0.3162 µM): 1.28
- relative viability (NCI-H2170; first compound 1 µM): 1
- relative viability (NCI-H23; first compound 0.01 µM): 0.687
- relative viability (NCI-H23; first compound 0.03162 µM): 0.517
- relative viability (NCI-H23; first compound 0.1 µM): 0.542
- relative viability (NCI-H23; first compound 0.3162 µM): 0.323
- relative viability (NCI-H23; first compound 1 µM): 0.203
